Results: US11684067B2, “Generation of peroxyformic acid through polyhydric alcohol formate” (priority 2014, dated 2023)
“And” between values parts separate entries of the source, which are not always exact repeats. Equal entries are not always repeated.

Key:
[1] = test system: Bacillus subitilisATCC 19659; experiment: Sporicidal activity of ester PFA versus POAA (Example 21); format: cell-based, Bacillus subtilis; settings: 20°C, dirty
Source text: Bacillus pathogens were used to evaluate the micro efficacy of ester PFA generated according to methods of the present invention in comparison to POAA.

[2] = test system: Aspergillus brasiliensis ATCC 16404; experiment: Fungicidal/yeasticidal activity of ester PFA versus POAA (Example 22); format: cell-based; settings: 20°C, dirty
Source text: (§1) Canidia and Aspergillus pathogens were used to evaluate the micro efficacy of ester PFA generated according to methods of the present invention in comparison to POAA.

[3] = test system: Candida albicans ATCC 10231; experiment: as above; format: cell-based; settings: 20°C, dirty
Source text: as §1

[4] = test system: Bacillus subitilisATCC 19659; experiment: Sporicidal activity of ester PFA versus POAA (Example 23); format: cell-based, Bacillus subtilis; settings: 20°C, dirty
Source text: Additional Bacillus pathogens were used to evaluate the micro efficacy of ester PFA generated according to methods of the present invention in comparison to POAA.

[5] = Laundry disinfection efficacy, EPA protocol on 100% cotton carriers (Table 38); format: cell-based; settings: 42 ppm, pH 7.7, 500 ppm hard water, 40° C., 5 minute exposure, vs water control
Method: The microbial efficacy of peroxyformic acid was also tested following the EPA protocol on 100% cotton carriers against a water control. The test conditions were pH 7.7, 500 ppm hard water, 40° C. and 5 minute exposure time. In comparison, the performance of peracetic acid was also tested under the same conditions.

[6] = test system: Staphylococcus aureus ATCC 6538; experiment: Bactericidal activity of ester PFA versus POAA, EN 1276, dirty conditions; format: cell-based; settings: 20°C
Source text: (§2) Additional Staphylococcus, Enterococcus and Pseudomonas pathogens were used to evaluate the micro efficacy of ester PFA generated according to methods of the present invention in comparison to POAA.

[7] = test system: Enterococcus hirae ATCC 10541; experiment: as above; format: cell-based; settings: 20°C
Source text: as §2

[8] = test system: Pseudomonas aeruginosa ATCC 15442; experiment: as above; format: cell-based; settings: 20°C
Source text: as §2

pseudomonas = experiment: Suspension test in cooling tower water samples; format: cell-based; settings: 10 minutes
Method: The antimicrobial efficacy of peroxyformic acid generated through the perhydrolysis of glycerol formatted were tested against pseudomonas in cooling tower samples at both 25° C. and 37° C., along with the peroxyacetic acid (POAA) controls, and the results are summarized in Table 6 and 7 below.

[9] = test system: Nalidixic acid resistant E. coli O157:H7; experiment: Reduction of E. coli on raw beef brisket, dip treatment; format: cell-based; settings: 10 minutes dip, ambient, 220 ppm POAA / 180 ppm PFA / 50 ppm LAS per formula (Table 15)
Method: Nalidixic acid resistant E. coli O157:H7 was used to evaluate the efficacy in treatment with performic acid composition on raw beef brisket according to the conditions shown in Table 14.
The generation of PFA from the perhydrolysis of glycerol formates, PFA formulations, POAA formations and controls were evaluated as shown in Table 15.

[10] = Physical properties (hygroscopicity, water solubility) of formate esters prepared; format: physicochemical; settings: hexaformates: at room temperature
[11] = 300 ppm PFA pH 6.84 / 368 ppm POAA pH 6.73 (molar equivalent), 5 minutes
[12] = 300 ppm PFA pH 6.84 / 368 ppm POAA pH 6.73 (molar equivalent), 10 minutes
[13] = 400 ppm PFA pH 7.19 / 490 ppm POAA pH 6.78 (molar equivalent), 5 minutes
[14] = 400 ppm PFA pH 7.19 / 490 ppm POAA pH 6.78 (molar equivalent), 10 minutes
[15] = 200 ppm PFA pH 6.15 / 245 ppm POAA pH 6.56, 5 minutes
[16] = 200 ppm PFA pH 6.15 / 245 ppm POAA pH 6.56, 10 minutes
[17] = 200 ppm PFA pH 6.15 / 245 ppm POAA pH 6.56, 15 minutes
[18] = 300 ppm PFA pH 6.21 / 368 ppm POAA pH 6.63, 5 minutes
[19] = 300 ppm PFA pH 6.21 / 368 ppm POAA pH 6.63, 10 minutes
[20] = 300 ppm PFA pH 6.73 / 368 ppm POAA pH 6.88, 5 minutes
[21] = 300 ppm PFA pH 6.73 / 368 ppm POAA pH 6.88, 10 minutes
[22] = 400 ppm PFA pH 6.95 / 490 ppm POAA pH 6.65, 5 minutes
[23] = 400 ppm PFA pH 6.95 / 490 ppm POAA pH 6.65, 10 minutes
[24] = 20 ppm PFA pH 6.61 / 24.8 ppm POAA pH 6.73, 5 minutes
[25] = 30 ppm PFA pH 6.74 / 37.6 ppm POAA pH 6.90, 5 minutes
[26] = 50 ppm PFA pH 6.60 / 62.4 ppm POAA pH 6.98, 5 minutes
[27] = BP Cooling Water pH 8.74, 5 ppm Ester PFA / 6.13 ppm POAA, 25°C
[28] = BP Cooling Water pH 8.74, 5 ppm Ester PFA / 6.13 ppm POAA, 37°C
[29] = BP Cooling Water pH 8.74, 12.3 ppm POAA, 25°C
[30] = BP Cooling Water pH 8.74, 12.3 ppm POAA, 37°C
[31] = Peninsula Cooling Water pH 8.81, 5 ppm Ester PFA / 6.13 ppm POAA, 25°C
[32] = Peninsula Cooling Water pH 8.81, 5 ppm Ester PFA / 6.13 ppm POAA, 37°C
[33] = Peninsula Cooling Water pH 8.81, 12.3 ppm POAA, 25°C
[34] = Peninsula Cooling Water pH 8.81, 12.3 ppm POAA, 37°C

CC(=O)OO [POAA, peroxyacetic acid, reference compound]
Average CFU/mL [1, 11]: 7.50E+05 CFU/mL
Log10 Growth [1, 11]: 5.88 Log10
Log10 Reduction [1, 11]: 0.00 Log10
Average CFU/mL [1, 12]: 5.00E+05 CFU/mL
Log10 Growth [1, 12]: 5.70 Log10
Log10 Reduction [1, 12]: 0.00 Log10
Average CFU/mL [1, 13]: 8.50E+05 CFU/mL
Log10 Growth [1, 13]: 5.93 Log10
Log10 Reduction [1, 13]: 0.00 Log10
Average CFU/mL [1, 14]: 4.00E+05 CFU/mL
Log10 Growth [1, 14]: 5.60 Log10
Log10 Reduction [1, 14]: 0.19 Log10
Average CFU/mL [2, 15]: >1.65E+05 CFU/mL
Log10 Growth [2, 15]: >5.22 Log10
Log10 Reduction [2, 15]: <0.53 Log10
Average CFU/mL [2, 16]: >1.65E+05 CFU/mL
Log10 Growth [2, 16]: >5.22 Log10
Log10 Reduction [2, 16]: <0.53 Log10
Average CFU/mL [2, 17]: >1.65E+05 CFU/mL
Log10 Growth [2, 17]: >5.22 Log10
Log10 Reduction [2, 17]: <0.53 Log10
Average CFU/mL [2, 18]: >1.65E+05 CFU/mL
Log10 Growth [2, 18]: >5.22 Log10
Log10 Reduction [2, 18]: <0.53 Log10
Average CFU/mL [2, 19]: >1.65E+05 CFU/mL
Log10 Growth [2, 19]: >5.22 Log10
Log10 Reduction [2, 19]: <0.53 Log10
Average CFU/mL [3, 15]: <140 CFU/mL
Log10 Growth [3, 15]: <2.15 Log10
Log10 Reduction [3, 15]: >4.14 Log10
Average CFU/mL [3, 16]: <140 CFU/mL
Log10 Growth [3, 16]: <2.15 Log10
Log10 Reduction [3, 16]: >4.14 Log10
Average CFU/mL [3, 17]: <140 CFU/mL
Log10 Growth [3, 17]: <2.15 Log10
Log10 Reduction [3, 17]: >4.14 Log10
Average CFU/mL [3, 18]: <140 CFU/mL
Log10 Growth [3, 18]: <2.15 Log10
Log10 Reduction [3, 18]: >4.14 Log10
Average CFU/mL [3, 19]: <140 CFU/mL
Log10 Growth [3, 19]: <2.15 Log10
Log10 Reduction [3, 19]: >4.14 Log10
Average CFU/mL [4, 20]: >3.0E+06 CFU/mL
Log10 Growth [4, 20]: >6.48 Log10
Log10 Reduction [4, 20]: <1.26 Log10
Average CFU/mL [4, 21]: >3.0E+05 CFU/mL
Log10 Growth [4, 21]: >5.48 Log10
Log10 Reduction [4, 21]: <2.26 Log10
Average CFU/mL [4, 22]: >3.0E+06 CFU/mL
Log10 Growth [4, 22]: >6.48 Log10
Log10 Reduction [4, 22]: <1.26 Log10
Average CFU/mL [4, 23]: >3.0E+05 CFU/mL
Log10 Growth [4, 23]: >5.48 Log10
Log10 Reduction [4, 23]: <2.26 Log10
Log reduction ([5]; Klebsiella pneumoniae ATCC 4352): 2.46
Log reduction ([5]; Staphylococcus aureus ATCC 6538): >5.85
Average CFU/mL [6, 24]: 1.77E + 05 CFU/mL
Log10 Growth [6, 24]: 5.25 Log10
Average CFU/mL [6, 25]: <140 CFU/mL
Log10 Growth [6, 25]: <2.15 Log10
Average CFU/mL [6, 26]: <140 CFU/mL
Log10 Growth [6, 26]: <2.15 Log10
Average CFU/mL [7, 24]: >3.30E + 05 CFU/mL
Log10 Growth [7, 24]: >5.52 Log10
Average CFU/mL [7, 25]: 9.25E + 03 CFU/mL
Log10 Growth [7, 25]: 3.97 Log10
Average CFU/mL [7, 26]: <140 CFU/mL
Log10 Growth [7, 26]: <2.15 Log10
Average CFU/mL [8, 24]: <140 CFU/mL
Log10 Growth [8, 24]: <2.15 Log10
Average CFU/mL [8, 25]: <140 CFU/mL
Log10 Growth [8, 25]: <2.15 Log10
Average CFU/mL [8, 26]: <140 CFU/mL
Log10 Growth [8, 26]: <2.15 Log10
Avg. Log10 Growth (pseudomonas; [27]): 4.10 Log10
Log10 Reduction (pseudomonas; [27]): 1.57 Log10
Avg. Log10 Growth (pseudomonas; [28]): 2.84 Log10
Log10 Reduction (pseudomonas; [28]): 2.26 Log10
Avg. Log10 Growth (pseudomonas; [29]): 3.26 Log10
Log10 Reduction (pseudomonas; [29]): 2.41 Log10
Avg. Log10 Growth (pseudomonas; [30]): 2.73 Log10
Log10 Reduction (pseudomonas; [30]): 2.37 Log10
Avg. Log10 Growth (pseudomonas; [31]): 3.81 Log10
Log10 Reduction (pseudomonas; [31]): 1.37 Log10
Avg. Log10 Growth (pseudomonas; [32]): 2.76 Log10
Log10 Reduction (pseudomonas; [32]): 2.34 Log10
Avg. Log10 Growth (pseudomonas; [33]): 3.30 Log10
Log10 Reduction (pseudomonas; [33]): 1.88 Log10
Avg. Log10 Growth (pseudomonas; [34]): 3.20 Log10
Log10 Reduction (pseudomonas; [34]): 1.90 Log10
Average Log CFU/cm2 [9]: 2.98 Log CFU/cm2
Log reduction [9]: 1.06 Log
CFU/cm2 ([9]; single samples): 1.20E+03 CFU/cm2 and 9.00E+02 CFU/cm2 and 8.00E+02 CFU/cm2
CFU/ml ([9]; single samples): 6.00E+02 CFU/ml and 4.50E+02 CFU/ml and 4.00E+02 CFU/ml
Log CFU/cm2 ([9]; single samples): 3.08 Log CFU/cm2 and 2.95 Log CFU/cm2 and 2.90 Log CFU/cm2

O=COC[C@@H](OC=O)[C@@H](OC=O)[C@H](OC=O)[C@@H](COC=O)OC=O [Mannitol Hexaformates]
solubility in water of the isolated solid [10]: marginally soluble in water
